Assay results published in PubChem BioAssay AID248 (DTP/NCI, 2004).
Values joined by “and” are separate entries in the source; they are usually repeats but may differ in a detail not shown here. Equal entries are not always repeated. Inconclusive results and toxic doses are left out. Cut-off read from the data, not from the text of the source: active = T/C of 150% or more; inactive = T/C below 125%.

Test system: L1210 leukemia ip in BDF1 mice, survival T/C
Test: NCI In Vivo Anticancer Drug Screen. Data for tumor model L1210 Leukemia (intraperitoneal) in B6D2F1 (BDF1) mice
Details: endpoint: mean survival time, higher = longer survival
How it was run: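 Transplantable tumor model; survival measured in treated vs vehicle control mice. Value = treated/control.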

[1] = dose: 100.0 mg/kg/injection, schedule: Q04DX003 (ip), vehicle: saline
[2] = dose: 200.0 mg/kg/injection, schedule: Q04DX003 (ip), vehicle: saline
[3] = dose: 400.0 mg/kg/injection, schedule: Q04DX003 (ip), vehicle: saline
[4] = dose: 100.0 mg/kg/injection, schedule: Q01DX001 (ip), vehicle: saline with Tween-80
[5] = dose: 100.0 mg/kg/injection, schedule: Q04DX003 (ip), vehicle: saline with Tween-80
[6] = dose: 200.0 mg/kg/injection, schedule: Q01DX001 (ip), vehicle: saline with Tween-80
[7] = dose: 200.0 mg/kg/injection, schedule: Q04DX003 (ip), vehicle: saline with Tween-80
[8] = dose: 400.0 mg/kg/injection, schedule: Q01DX001 (ip), vehicle: saline with Tween-80
[9] = dose: 100.0 mg/kg/injection, schedule: Q01DX009 (ip), vehicle: saline with Tween-80
[10] = dose: 200.0 mg/kg/injection, schedule: Q01DX009 (ip), vehicle: saline with Tween-80
[11] = dose: 100.0 mg/kg/injection, schedule: Q01DX001 (ip), vehicle: saline
[12] = dose: 200.0 mg/kg/injection, schedule: Q01DX001 (ip), vehicle: saline
[13] = dose: 400.0 mg/kg/injection, schedule: Q01DX001 (ip), vehicle: saline
[14] = dose: 12.5 mg/kg/injection, schedule: Q01DX009 (ip), vehicle: saline with Tween-80

Measured: T/C

CN(C)C(CCc1ccccc1)C(=O)O (centres undefined)
inactive: dose: 100.0 mg/kg/injection, schedule: Q01DX009 (ip), vehicle: saline sonified 102 % of control | [1] 102 % of control | dose: 200.0 mg/kg/injection, schedule: Q01DX009 (ip), vehicle: saline sonified 95 % of control | [2] 109 % of control | dose: 400.0 mg/kg/injection, schedule: Q01DX009 (ip), vehicle: saline sonified 101 % of control | [3] 109 % of control

CCN(C(=O)c1ccccc1C)C(c1ccccc1)P(=O)(c1ccccc1)c1ccccc1 (centres undefined)
inactive: [4] 118 % of control | dose: 100.0 mg/kg/injection, schedule: Q04DX002 (ip), vehicle: saline with Tween-80 98 % of control and 100 % of control | [5] 109 % of control and 86 % of control | [6] 100 % of control | dose: 200.0 mg/kg/injection, schedule: Q04DX002 (ip), vehicle: saline with Tween-80 93 % of control and 102 % of control | [7] 94 % of control and 96 % of control | [8] 97 % of control | dose: 400.0 mg/kg/injection, schedule: Q04DX002 (ip), vehicle: saline with Tween-80 93 % of control and 90 % of control | dose: 400.0 mg/kg/injection, schedule: Q04DX003 (ip), vehicle: saline with Tween-80 93 % of control and 112 % of control

O=c1oc2ccc(O)cc2c2ccccc12
inactive: [1] 105 % of control | [2] 97 % of control | [3] 103 % of control

CC1(CO)CCCC2(C)c3cc(O)ccc3CCC12 (centres undefined)
inactive: dose: 100.0 mg/kg/injection, schedule: Q01DX009 (ip), vehicle: acetone 90 % of control | [1] 97 % of control | [2] 97 % of control | [3] 97 % of control

C=C(C)C1CCC2(C(=O)O)CCC3(C)C(CCC4C5(C)CCC(=O)C(C)(C)C5CCC43C)C12 (centres undefined)
inactive: dose: 100.0 mg/kg/injection, schedule: Q04DX003 (ip), vehicle: Klucel (hydroxypropylcellulose) (HPC) 102 % of control | dose: 200.0 mg/kg/injection, schedule: Q04DX003 (ip), vehicle: Klucel (hydroxypropylcellulose) (HPC) 96 % of control | dose: 400.0 mg/kg/injection, schedule: Q04DX003 (ip), vehicle: Klucel (hydroxypropylcellulose) (HPC) 94 % of control

CCOC(=O)c1cc(C=O)nc2c(Cl)cc(Cl)cc12
inactive: [9] 89 % of control | [10] 92 % of control

O=C(CC1C(=O)Nc2ccccc21)CC1C(=O)Nc2ccccc21 (centres undefined)
inactive: dose: 100.0 mg/kg/injection, schedule: Q04DX002 (ip), vehicle: Klucel (hydroxypropylcellulose) (HPC) 102 % of control | dose: 200.0 mg/kg/injection, schedule: Q04DX002 (ip), vehicle: Klucel (hydroxypropylcellulose) (HPC) 97 % of control | dose: 400.0 mg/kg/injection, schedule: Q04DX002 (ip), vehicle: Klucel (hydroxypropylcellulose) (HPC) 102 % of control

CN(C(=O)/C=C/c1ccc([N+](=O)[O-])cc1)c1ccc(S(=O)(=O)F)cc1
inactive: dose: 100.0 mg/kg/injection, schedule: Q01DX009 (ip), vehicle: Klucel (hydroxypropylcellulose) (HPC) 91 % of control | dose: 200.0 mg/kg/injection, schedule: Q01DX009 (ip), vehicle: Klucel (hydroxypropylcellulose) (HPC) 94 % of control | dose: 400.0 mg/kg/injection, schedule: Q01DX009 (ip), vehicle: Klucel (hydroxypropylcellulose) (HPC) 97 % of control

CS(=O)(=O)OCCCN(CCCOS(C)(=O)=O)c1ccc(C=Nc2ccc(-c3csc(COc4ccc(Br)cc4)n3)cc2)cc1
inactive: [9] 95 % of control | [10] 95 % of control

O=[N+]([O-])c1ccc(Oc2cccc(Cl)c2)c(Cl)c1
inactive: [11] 112 % of control | [12] 109 % of control | [13] 105 % of control

O=c1ccnc(SCc2ccccc2Cl)[nH]1
inactive: dose: 100.0 mg/kg/injection, schedule: Q01DX Z (ip), vehicle: methylcellulose (MC) 91 % of control | dose: 200.0 mg/kg/injection, schedule: Q01DX Z (ip), vehicle: methylcellulose (MC) 91 % of control

CCCCc1cccc2c1OCO2
inactive: [11] 103 % of control | [12] 103 % of control

CC(=O)c1c(C)[nH]c(C(=O)O)c1C
inactive: [4] 103 % of control | [6] 100 % of control | [8] 90 % of control

FC(F)(F)c1cccc(N2CCN(c3c4c(nc5ccccc35)CCCCC4)CC2)c1
inactive: [11] 93 % of control | [12] 95 % of control | [13] 95 % of control

CC(C)(C)CC#N
inactive: dose: 5.0 mg/kg/injection, schedule: Q01DX001 (ip), vehicle: saline 100 % of control | dose: 10.0 mg/kg/injection, schedule: Q01DX001 (ip), vehicle: saline 106 % of control | dose: 20.0 mg/kg/injection, schedule: Q01DX001 (ip), vehicle: saline 102 % of control | dose: 40.0 mg/kg/injection, schedule: Q01DX001 (ip), vehicle: saline 106 % of control | dose: 80.0 mg/kg/injection, schedule: Q01DX001 (ip), vehicle: saline 100 % of control | [11] 94 % of control

O=C(O)c1ccc(NC(c2ccccc2)c2ccc3cccnc3c2O)cc1 (centres undefined)
inactive: [11] 86 % of control | [12] 89 % of control | [13] 86 % of control

FC1(F)SC2CCCC2C1(F)F (centres undefined)
inactive: dose: 3.13 mg/kg/injection, schedule: Q01DX009 (ip), vehicle: saline with Tween-80 95 % of control | dose: 6.25 mg/kg/injection, schedule: Q01DX009 (ip), vehicle: saline with Tween-80 106 % of control | [14] 95 % of control and 101 % of control | dose: 12.5 mg/kg/injection, schedule: Q04DX003 (ip), vehicle: saline with Tween-80 101 % of control | dose: 25.0 mg/kg/injection, schedule: Q04DX003 (ip), vehicle: saline with Tween-80 104 % of control | dose: 50.0 mg/kg/injection, schedule: Q04DX003 (ip), vehicle: saline with Tween-80 95 % of control

CC1(c2ccccc2)OC(=O)c2c1ccc1ccccc21 (centres undefined)
inactive: [4] 94 % of control | [6] 95 % of control | [8] 90 % of control

CC(=O)OC1CCC2(C)C(CCC3C2C(=O)C(OC(C)=O)C2(C)C3CC3OC4(CCC(C)CO4)C(C)C32)C1 (centres undefined)
inactive: [9] 90 % of control | [10] 95 % of control | dose: 400.0 mg/kg/injection, schedule: Q01DX009 (ip), vehicle: saline with Tween-80 101 % of control

O=C1c2ccccc2C(=O)N1OCCCBr
inactive: dose: 50.0 mg/kg/injection, schedule: Q01DX001 (ip), vehicle: saline 96 % of control | [11] 102 % of control | [12] 102 % of control | [13] 102 % of control

CCN(CC)CCN(C)c1ccc(CO)c2sc3cc(Cl)ccc3c(=O)c12
inactive: dose: 7.81 mg/kg/injection, schedule: Q01DX009 (ip), vehicle: saline 101 % of control | dose: 15.63 mg/kg/injection, schedule: Q01DX009 (ip), vehicle: saline 101 % of control | dose: 31.25 mg/kg/injection, schedule: Q01DX009 (ip), vehicle: saline 100 % of control | dose: 62.5 mg/kg/injection, schedule: Q01DX009 (ip), vehicle: saline 99 % of control

CCC1=C(c2ccc(OC)cc2)C(C)Oc2cc(OC(C)=O)ccc21 (centres undefined)
inactive: dose: 50.0 mg/kg/injection, schedule: Q01DX001 (sc), vehicle: steriod suspending solution 101 % of control | dose: 100.0 mg/kg/injection, schedule: Q01DX001 (sc), vehicle: steriod suspending solution 101 % of control | dose: 200.0 mg/kg/injection, schedule: Q01DX001 (sc), vehicle: steriod suspending solution 97 % of control | dose: 400.0 mg/kg/injection, schedule: Q01DX001 (sc), vehicle: steriod suspending solution 103 % of control

CN(CC1CNc2nc(N)[nH]c(=O)c2N1C)c1ccc(C(=O)NC(CCC(=O)O)C(=O)O)cc1 (centres undefined)
inactive: [11] 94 % of control | [12] 102 % of control | [13] 94 % of control

Cc1cccc(N2CCN(CC(O)COc3cccc4ccccc34)CC2)c1 (centres undefined)
inactive: [11] 95 % of control | [12] 98 % of control | [13] 95 % of control

COc1cc2c3c(c1)/C(=N\N)CCN3CCC2
inactive: [14] 90 % of control | dose: 25.0 mg/kg/injection, schedule: Q01DX009 (ip), vehicle: saline with Tween-80 94 % of control | dose: 50.0 mg/kg/injection, schedule: Q01DX009 (ip), vehicle: saline with Tween-80 92 % of control | [5] 92 % of control | [10] 99 % of control | [7] 103 % of control

Cc1ccc(CN(CC(=O)O)S(C)(=O)=O)cc1
inactive: dose: 100.0 mg/kg/injection, schedule: Q01DX009 (ip), vehicle: other 105 % of control | dose: 100.0 mg/kg/injection, schedule: Q04DX003 (ip), vehicle: other 95 % of control | dose: 200.0 mg/kg/injection, schedule: Q01DX009 (ip), vehicle: other 98 % of control | dose: 200.0 mg/kg/injection, schedule: Q04DX003 (ip), vehicle: other 97 % of control | dose: 400.0 mg/kg/injection, schedule: Q01DX009 (ip), vehicle: other 110 % of control | dose: 400.0 mg/kg/injection, schedule: Q04DX003 (ip), vehicle: other 101 % of control
